Patent publication US20240116884A1, “Salts of Viloxazine” (Apotex Inc., priority 2022, published 2024)

Conditions: uncapped samples, 40° C./75% RH stability chamber, at least 3 weeks
Method: PXRD diffractograms were recorded on a Bruker D8 Discover powder X-ray diffractometer (Bruker AXS LLC, Karlsruhe, Germany). The generator was a Incoatec Microfocus Source (IμS) Cu tube (λ=1.54060 Å) with a voltage of 50 kV and current of 1.00 mA, using a divergence slit of 0.1 mm and collimator of 2.0 mm. For each sample, two frames were collected using a still scan with a PILATUS3 R 100K-A detector at the distance of 294.2 mm from the sample. Raw data were evaluated using the program DIFFRAC.EVA (Bruker AXS LLC, Karlsruhe, Germany).

Which “change in the crystalline form by PXRD (form stability)” value (from here on “change in the crystalline form by PXRD”) does the source give for `CCOc1ccccc1OCC1CNCCO1.CCOc1ccccc1OCC1CNCCO1.O=C(O)C(O)C(O)C(=O)O` (racemic) [viloxazine hemi-DL-tartrate Form APO-I, viloxazine hemi-DL-tartrate] here?
The value was “no change in the crystalline form occurred”.

For “viloxazine fumarate [viloxazine fumarate Form APO-I]”, which “change in the crystalline form by PXRD” value is on record?
Its value is “no change in the crystalline form occurred”.

Which “change in the crystalline form by PXRD” value does the source give for `CCOc1ccccc1OCC1CNCCO1.O=S(=O)(O)c1ccc2ccccc2c1` (stereo not drawn) [viloxazine naphthalene-2-sulfonate] here?
The value was “no change in the crystalline form occurred”.
